ChEMBL document CHEMBL4270579, “Structure-activity relationship and conformational studies of the natural product cyclic depsipeptides YM-254890 and FR900359” (Eur J Med Chem, 2018)
*1 amine or outer side, *2 acyl side, *3 side chain or, on linkers, in order; H or OH if unused. Where a SMILES comes first, the peptide text is derived from it. Bridges are numbered along the chain shown (N, C = ends). [ ]: non-standard residue; d: D form. Leu(3R-O(AcLeu(3R-OH))) = CC(=O)N[C@H](C(=O)O[C@H](C(C)C)[C@H](N)C(=O)O)[C@H](O)C(C)C; X1 = CC(C)[C@@H](O[*:3])[C@H](N[*:1])C(=O)[*:2]; NMeT = CN[C@H](C(=O)O)[C@@H](C)O; dPhLac = O=C(O)[C@H](O)Cc1ccccc1; NMeA = CN[C@@H](C)C(=O)O; NMeDha = C=C(NC)C(=O)O

Assays:
[1] = target: T1, Guanine nucleotide-binding protein subunit alpha-11 (Homo sapiens, UniProt P29992); assay: Inhibition of recombinant human Gq/11 coupled N-terminal 3His-tagged M1 receptor expressed in CHOK1 cells assessed as reduction in carbachol-induced IP1 accumulation pretreated for 1 hr followed by carbachol addition and subsequent incubation for 1 hr at 37 degC measured after 15 mins at room temperature by HTRF assay; type: cell-based
T1 sequence (P29992 whole entry): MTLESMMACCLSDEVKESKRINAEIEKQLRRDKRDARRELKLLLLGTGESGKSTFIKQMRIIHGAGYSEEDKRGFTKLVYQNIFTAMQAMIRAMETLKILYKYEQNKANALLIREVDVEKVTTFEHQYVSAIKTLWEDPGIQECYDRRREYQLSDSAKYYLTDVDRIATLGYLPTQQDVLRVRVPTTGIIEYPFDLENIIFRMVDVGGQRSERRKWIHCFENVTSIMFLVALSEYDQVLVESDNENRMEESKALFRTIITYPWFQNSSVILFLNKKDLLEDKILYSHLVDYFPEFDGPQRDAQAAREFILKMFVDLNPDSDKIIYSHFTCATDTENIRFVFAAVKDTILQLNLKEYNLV

[2] = target: Guanine nucleotide-binding protein G(s) subunit alpha isoforms XLas (Homo sapiens, UniProt Q5JWF2); assay: Inhibition of Gs coupled adrenergic beta2 receptor in HEK293 cells assessed as reduction in isoproterenol-induced cAMP production pretreated for 1 hr followed by isoproterenol addition and measured after 30 mins by FRET assay; type: cell-based
Sequence of Guanine nucleotide-binding protein G(s) subunit alpha isoforms XLas (Q5JWF2 whole entry, canonical isoform): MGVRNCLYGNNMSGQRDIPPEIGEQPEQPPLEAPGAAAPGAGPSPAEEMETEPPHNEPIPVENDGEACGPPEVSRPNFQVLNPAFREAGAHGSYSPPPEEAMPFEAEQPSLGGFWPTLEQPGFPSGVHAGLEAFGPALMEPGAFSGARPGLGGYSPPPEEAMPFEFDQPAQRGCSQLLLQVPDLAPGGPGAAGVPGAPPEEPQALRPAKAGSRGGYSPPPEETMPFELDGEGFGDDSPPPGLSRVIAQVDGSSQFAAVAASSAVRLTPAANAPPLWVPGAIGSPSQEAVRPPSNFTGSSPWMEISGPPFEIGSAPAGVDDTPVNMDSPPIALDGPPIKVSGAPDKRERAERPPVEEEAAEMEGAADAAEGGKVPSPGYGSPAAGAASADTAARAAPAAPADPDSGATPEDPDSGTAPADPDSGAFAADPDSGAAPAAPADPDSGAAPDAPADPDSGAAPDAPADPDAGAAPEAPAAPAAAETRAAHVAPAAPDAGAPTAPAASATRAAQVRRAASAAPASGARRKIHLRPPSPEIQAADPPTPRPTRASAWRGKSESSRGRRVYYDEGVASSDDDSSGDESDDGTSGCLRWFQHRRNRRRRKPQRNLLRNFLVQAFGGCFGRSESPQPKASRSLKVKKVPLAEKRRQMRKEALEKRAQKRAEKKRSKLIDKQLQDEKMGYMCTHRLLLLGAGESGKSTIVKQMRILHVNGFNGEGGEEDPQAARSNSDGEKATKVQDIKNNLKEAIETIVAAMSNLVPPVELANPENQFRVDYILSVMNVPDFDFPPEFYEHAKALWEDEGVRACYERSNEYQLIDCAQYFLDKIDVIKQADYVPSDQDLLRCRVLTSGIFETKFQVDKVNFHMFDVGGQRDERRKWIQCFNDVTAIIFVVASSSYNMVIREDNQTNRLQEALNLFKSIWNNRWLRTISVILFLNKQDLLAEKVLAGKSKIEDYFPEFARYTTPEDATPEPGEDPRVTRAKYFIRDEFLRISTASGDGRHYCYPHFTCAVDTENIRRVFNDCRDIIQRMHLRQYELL

Row | IC50 [1] [µM] | IC50 [2] [µM] | SMILES
1 | 3.69 | > 100 | C=C1C(=O)N[C@@H](C)C(=O)N(C)[C@@H](C)C(=O)N[C@@H]([C@H](OC(=O)[C@@H](NC(C)=O)[C@H](O)C(C)C)C(C)C)C(=O)N(C)[C@@H]([C@@H](C)OC)C(=O)O[C@H](C)[C@H](NC(C)=O)C(=O)O[C@H](CC(C)C)C(=O)N1C
2 | 2.34 | > 100 | C=C1C(=O)N[C@@H](C)C(=O)N(C)[C@@H](C)C(=O)N[C@@H]([C@H](OC(=O)[C@@H](NC(=O)c2ccccc2)[C@H](O)C(C)C)C(C)C)C(=O)N(C)[C@@H]([C@@H](C)OC)C(=O)O[C@H](C)[C@H](NC(C)=O)C(=O)O[C@H](Cc2ccccc2)C(=O)N1C
3 | > 50 | > 100 | CO[C@H](C)[C@H]1C(=O)O[C@H](C)[C@H](NC(C)=O)C(=O)O[C@H](CC(C)C)C(=O)N(C)[C@H](CO)C(=O)N[C@@H](C)C(=O)N(C)[C@@H](C)C(=O)N[C@@H]([C@H](OC(=O)[C@@H](NC(C)=O)[C@H](O)C(C)C)C(C)C)C(=O)N1C
4 | 0.88 | > 100 | C=C1C(=O)N[C@@H](C)C(=O)N(C)[C@@H](C)C(=O)N[C@@H]([C@H](OC(=O)[C@@H](NC(=O)CCCCC)[C@H](O)C(C)C)C(C)C)C(=O)N(C)[C@@H]([C@@H](C)OC)C(=O)O[C@H](C)[C@H](NC(C)=O)C(=O)O[C@H](Cc2ccccc2)C(=O)N1C
5 | 1.89 | > 100 | C=C1C(=O)N[C@@H](C)C(=O)N(C)[C@@H](C)C(=O)N[C@@H]([C@H](OC(=O)[C@@H](NC(C)=O)[C@H](O)C(C)C)C(C)C)C(=O)N(C)[C@@H]([C@@H](C)OC)C(=O)OC[C@H](NC(C)=O)C(=O)O[C@H](Cc2ccccc2)C(=O)N1C

More lines, now with the values behind:

Row | SMILES | IC50 [1] [µM] | IC50 [2] [µM]
6 | C=C1C(=O)N[C@@H](C)C(=O)N(C)[C@@H](C)C(=O)N[C@@H]([C@H](OC(=O)[C@@H](NC(C)=O)[C@H](O)C(C)C)C(C)C)C(=O)N(C)[C@@H]([C@@H](C)OC)C(=O)O[C@H](C)[C@H](NC(C)=O)C(=O)O[C@H](Cc2ccccc2)C(=O)N1C | 0.15 | > 100
7 | C=C1C(=O)N[C@H](C)C(=O)N(C)[C@@H](C)C(=O)N[C@@H]([C@H](OC(=O)[C@@H](NC(C)=O)[C@H](O)C(C)C)C(C)C)C(=O)N(C)[C@@H]([C@@H](C)OC)C(=O)O[C@H](C)[C@H](NC(C)=O)C(=O)O[C@H](Cc2ccccc2)C(=O)N1C | 36.6 | 
8 | C=C1C(=O)N[C@@H](C)C(=O)N(C)[C@@H](C)C(=O)N[C@@H]([C@H](OC(=O)[C@@H](NC(C)=O)[C@H](O)C(C)C)C(C)C)C(=O)N(C)[C@@H]([C@@H](C)OC)C(=O)O[C@H](C(C)C)[C@H](NC(C)=O)C(=O)O[C@H](Cc2ccccc2)C(=O)N1C (Ac-[X1][dPhLac][NMeDha]A[NMeA][Leu(3R-O(AcLeu(3R-OH)))][NMeT](Me); ester 1-C) | 0.31 | > 100
9 | C=C1C(=O)N[C@@H](C)C(=O)N(C)[C@@H](C)C(=O)N[C@@H]([C@H](OC(=O)[C@@H](NC(C)=O)[C@H](O)C(C)C)C(C)C)C(=O)N(C)[C@@H]([C@@H](C)OC)C(=O)O[C@@H](C)[C@H](NC(C)=O)C(=O)O[C@H](Cc2ccccc2)C(=O)N1C | > 50 | > 100
